Measured values published in patent US10344019B2 (priority 2010, dated 2019).
Read-outs that look alike come from different tables or passages of the source.

Assays:
Test in all cases: microbe, parasite or virus in culture
Format in all cases: cell-based
[1] = tested on: HCV 2a JFH-1 Rluc cells (dicistronic genotype 2a JFH-1 replicon, RLuc reporter); conditions: Hepatitis C virus, genotype 2a JFH-1 replicon, read-out: 2a JFH
Procedure, shortened: (§1)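 Replicons used: genotype 1b Con1, 1a H77, 2a JFH-1, and a 2a JFH-1 chimera with J6-strain NS5A (M31 present), all dicistronic.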

[2] = tested on: HCV 1a RLuc cells (dicistronic genotype 1a H77 replicon, RLuc reporter); conditions: read-out: 1a
Procedure, shortened: as §1

[3] = tested on: HCV 3a RLuc cells (NS5A chimeric genotype 1b Con1 replicon with consensus genotype 3a NS5A gene); conditions: Hepatitis C virus
Procedure, shortened: (§2)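 Replicon cells stably carrying the listed RLuc-encoding dicistronic replicons were seeded and treated with DMSO serial dilutions of compound (10 mM stocks) diluted into culture medium. After 72 h, cells were lysed and Renilla luciferase activity measured. EC50 was derived by non-linear regression.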

[4] = tested on: HCV 4a Rluc cells (NS5A chimeric genotype 1b Con1 replicon with genotype 4a NS5A gene); conditions: Hepatitis C virus, read-out: 4a
Procedure, shortened: as §2

[5] = tested on: HCV 1b RLuc cells (dicistronic genotype 1b Con1 replicon, RLuc reporter); conditions: Hepatitis C virus, read-out: 1b (nM)
Procedure, shortened: as §1

[6] = Hepatitis C virus, 72 h, Table 2, genotype 1a H77 replicon, 72 hours
[7] = read-out: 3a, Table 2, genotype 3a NS5A chimeric replicon
[8] = Hepatitis C virus, genotype 1a replicon
[9] = read-out: 3a, genotype 3a replicon
[10] = read-out: 3a, genotype 3a NS5A chimeric 1b Con1 replicon
[11] = Hepatitis C virus, genotype 1a H77 replicon, RLuc reporter

| SMILES | EC50 [4] [nM] | EC50 ([5]; 72 h) [nM] | EC50 [1] [nM] | EC50 [2, 8] [nM] | EC50 [3, 9] [nM] | EC50 [5] [nM] | also measured |
| --- | --- | --- | --- | --- | --- | --- | --- |
| COC(=O)N[C@H](C(=O)N1CCC[C@H]1c1ncc(-c2ccc(-c3ccc(-c4cnc([C@@H]5[C@H]6CC[C@H](C6)N5C(=O)[C@@H](NC(=O)OC)C5CCOCC5)[nH]4)cc3)cc2)[nH]1)C(C)C [Example 61] | 0.001 to 0.99 | 0.087 | – | – | – | – | EC50 ([1]; 72 h, Table 2, 72 hours): 0.001 to 0.999 nM; EC50 [2, 6]: 0.001 to 0.999 nM; EC50 [3, 7]: 1 to 4.99 nM |
| COC(=O)NC(C(=O)N1[C@@H]2CC[C@@H](C2)[C@H]1c1nc2ccc(-c3ccc4c(c3)C(F)(F)c3cc(-c5c[nH]c([C@H]6CCCN6C(=O)[C@H](NC(=O)OC)c6ccccc6)n5)ccc3-4)cc2[nH]1)[C@@H](C)OC (stereo partly shown) [Example 75] | 0.001 to 0.99 | 0.005 | – | – | – | – | EC50 ([1]; 72 h, Table 2, 72 hours): 0.001 to 0.999 nM; EC50 [2, 6]: 0.001 to 0.999 nM; EC50 [3, 7]: 0.001 to 0.99 nM |
| CC#Cc1cc(-c2cnc([C@@H]3CCCN3C(=O)[C@@H](NC(=O)OC)C(C)C)[nH]2)ccc1-c1ccc2c(ccc3nc([C@@H]4CCCN4C(=O)[C@@H](NC(=O)OC)C(C)C)[nH]c32)c1 [Example 372] | 0.001 to 0.99 | – | 0.001 to 0.999 | 0.001 to 0.999 | 0.001 to 0.99 | 0.008 | – |
| COC(=O)N[C@H](C(=O)N1CCC[C@H]1c1ncc(-c2ccc3cc(-c4ccc(-c5cnc([C@@H]6CCCN6C(=O)[C@@H](NC(=O)OCc6ccccc6)C6CCSCC6)[nH]5)cc4)ccc3c2)[nH]1)C(C)C [Example 275] | > 5 | – | – | – | – | 2.15 | EC50 ([1]; RLuc reporter): > 44 nM; EC50 ([2]; genotype 1a H77 replicon, RLuc reporter): 1 to 44 nM; EC50 [3, 10]: > 5 nM |
| COC(=O)N[C@H](C(=O)N1CCC[C@H]1c1ncc(-c2ccc3cc(-c4ccc(-c5cnc([C@@H]6CCCN6C(=O)[C@@H](N)C6CCSCC6)[nH]5)cc4)ccc3c2)[nH]1)C(C)C [Example 277] | 1 to 4.99 | – | – | – | – | 1.06 | EC50 ([1]; RLuc reporter): > 44 nM; EC50 [2, 11]: 1 to 44 nM; EC50 [3, 10]: > 5 nM |
| COC(=O)N[C@H](C(=O)N1[C@@H]2C[C@@H]2C[C@H]1c1nc2ccc3cc(-c4ccc(-c5cnc([C@@H]6[C@H]7CC[C@H](C7)N6C(=O)[C@@H](NC(=O)OC)[C@@H](C)OC)[nH]5)cc4)ccc3c2[nH]1)C(C)C [Example 336] | 0.001 to 0.99 | – | 0.001 to 0.999 | 0.001 to 0.999 | 1 to 4.99 | 0.013 | – |
| CC#Cc1cc(-c2cnc([C@@H]3CCCN3C(=O)[C@@H](NC(=O)OC)C(C)C)[nH]2)ccc1-c1ccc(-c2cnc([C@@H]3CCCN3C(=O)[C@@H](NC(=O)OC)C3CCOCC3)[nH]2)cc1 [Example 347] | 0.001 to 0.99 | – | 0.001 to 0.999 | 0.001 to 0.999 | 0.001 to 0.99 | 0.055 | – |
| COC(=O)N[C@H](C(=O)N1CCC[C@H]1c1ncc(-c2ccc(C#Cc3ccc4c(ccc5nc([C@@H]6CCCN6C(=O)[C@@H](NC(=O)OC)C6CCOCC6)[nH]c54)c3)cc2)[nH]1)C(C)C [Example 229] | 0.001 to 0.99 | – | – | – | – | 0.018 | EC50 ([1]; RLuc reporter): 0.001 to 0.999 nM; EC50 [2, 11]: 0.001 to 0.999 nM; EC50 [3, 10]: 1 to 4.99 nM |
| COC(=O)N[C@H](C(=O)N1CCC[C@H]1c1nc2c3ccccc3c3cc(-c4ccc(-c5cnc([C@@H]6CCCN6C(=O)[C@@H](NC(=O)OC)C6CCOCC6)[nH]5)cc4)ccc3c2[nH]1)C(C)C [Example 300] | 0.001 to 0.99 | – | 0.001 to 0.999 | 1 to 44 | 1 to 4.99 | 0.023 | – |
| COC(=O)N[C@H](C(=O)N1CCC[C@H]1c1nc2ccc3cc(-c4ccc(-c5cnc([C@@H]6CC7(CN6C(=O)[C@H](NC(=O)OC)c6ccccc6)OCCO7)[nH]5)cc4)ccc3c2[nH]1)C1CCOCC1 [Example 297] | 0.001 to 0.99 | – | 0.001 to 0.999 | 0.001 to 0.999 | 0.001 to 0.99 | 0.357 | – |
| COC(=O)N[C@H](C(=O)N1CCC[C@H]1c1nc2ccc(-c3ccc4c(c3)C(F)(F)c3cc(-c5c[nH]c([C@@H]6CCCN6C(=O)[C@H](NC(=O)OC)c6ccccc6)n5)ccc3-4)cc2[nH]1)C(C)C [Example 217] | 0.001 to 0.99 | – | – | – | – | 0.009 | EC50 ([1]; RLuc reporter): 0.001 to 0.999 nM; EC50 [2, 11]: 0.001 to 0.999 nM; EC50 [3, 10]: 0.001 to 0.99 nM |
| COC(=O)N[C@H](C(=O)N1CCC[C@H]1c1nc2c([nH]1)-c1ccc(-c3ccc4c(ccc5nc([C@@H]6CC7(CN6C(=O)[C@H](NC(=O)OC)c6ccccc6)OCCO7)[nH]c54)c3)cc1CC2)C(C)C [Example 366] | 0.001 to 0.99 | – | 0.001 to 0.999 | 0.001 to 0.999 | 0.001 to 0.99 | 0.075 | – |
| COC(=O)N[C@H](C(=O)N1CCC[C@H]1c1ncc(-c2ccc3cc(-c4ccc(-c5cnc([C@@H]6CCCN6C(=O)[C@@H](NC(=O)OC)[C@@H](C)OC)[nH]5)cc4)ccc3c2)[nH]1)C(C)C [Example 240] | 0.001 to 0.99 | – | – | – | – | 0.01 | EC50 ([1]; RLuc reporter): 0.001 to 0.999 nM; EC50 [2, 11]: 0.001 to 0.999 nM; EC50 [3, 10]: 1 to 4.99 nM |
| COC(=O)N[C@H](C(=O)N1[C@@H]2CC[C@@H](C2)[C@H]1c1nc2ccc3cc(-c4ccc(-c5cnc([C@@H]6C[C@H]7C[C@H]7N6C(=O)[C@@H](NC(=O)OC)C(C)C)[nH]5)cc4)ccc3c2[nH]1)C(C)C [Example 340] | 0.001 to 0.99 | – | 0.001 to 0.999 | 0.001 to 0.999 | 0.001 to 0.99 | 0.013 | – |
| COC(=O)N[C@H](C(=O)N1CCC[C@H]1c1ncc(-c2ccc3cc(-c4ccc(-c5cnc([C@@H]6[C@H]7CC[C@H](C7)N6C(=O)[C@H](NC(=O)OC)c6ccccc6)[nH]5)cc4)ccc3c2)[nH]1)C1CCOCC1 [Example 49] | 0.001 to 0.99 | 0.014 | – | – | – | – | EC50 ([1]; 72 h, Table 2, 72 hours): 0.001 to 0.999 nM; EC50 [2, 6]: 0.001 to 0.999 nM; EC50 [3, 7]: 0.001 to 0.99 nM |
| COC(=O)N[C@H](C(=O)N1CCC[C@H]1c1nc2ccc3cc(-c4ccc(-c5cnc([C@@H]6CC7(CN6C(=O)[C@H](NC(=O)OC)c6ccccc6)OCCO7)[nH]5)cc4)ccc3c2[nH]1)C(C)C [Example 296] | 0.001 to 0.99 | – | 0.001 to 0.999 | 0.001 to 0.999 | 0.001 to 0.99 | 0.063 | – |
| COC(=O)N[C@H](C(=O)N1[C@@H]2CC[C@@H](C2)[C@H]1c1nc2c([nH]1)-c1ccc(-c3ccc4c(ccc5nc([C@@H]6CCCN6C(=O)[C@@H](NC(=O)OC)[C@@H](C)OC)[nH]c54)c3)cc1CC2)C(C)C [Example 292] | 0.001 to 0.99 | – | 0.001 to 0.999 | 0.001 to 0.999 | 0.001 to 0.99 | 0.059 | – |
| COC(=O)N[C@H](C(=O)N1CC2(C[C@H]1c1ncc(-c3ccc(-c4ccc5cc(-c6cnc([C@@H]7CCCN7C(=O)[C@H](NC(=O)OC)c7ccccc7)[nH]6)ccc5c4)cc3)[nH]1)OCCO2)C1CCOCC1 [Example 50] | 0.001 to 0.99 | 0.031 | – | – | – | – | EC50 ([1]; 72 h, Table 2, 72 hours): 0.001 to 0.999 nM; EC50 [2, 6]: 0.001 to 0.999 nM; EC50 [3, 7]: 0.001 to 0.99 nM |
| COC(=O)N[C@H](C(=O)N1CCC[C@H]1c1ncc(-c2cc3c4c(c2)CCc2cc(-c5cnc([C@@H]6CCCN6C(=O)[C@@H](NC(=O)OC)[C@H](C)OC)[nH]5)cc(c2-4)CC3)[nH]1)C(C)C [Example 25] | 0.001 to 0.99 | 0.021 | – | – | – | – | EC50 ([1]; 72 h, Table 1, 72 hours): 0.001 to 0.999 nM; EC50 ([2]; Hepatitis C virus, 72 h, Table 1, genotype 1a H77 replicon, 72 hours): 0.001 to 0.999 nM; EC50 ([3]; read-out: 3a, Table 1, genotype 3a NS5A chimeric replicon): 0.001 to 0.99 nM |
| COC(=O)N[C@H](C(=O)N1CCC[C@H]1c1ncc(-c2ccc3c(c2)CCc2cc(-c4cnc([C@@H]5[C@H]6CC[C@H](C6)N5C(=O)[C@@H](NC(=O)OC)[C@@H](C)OC)[nH]4)ccc2-3)[nH]1)[C@@H](C)OC [Example 73] | 0.001 to 0.99 | 0.038 | – | – | – | – | EC50 ([1]; 72 h, Table 2, 72 hours): 0.001 to 0.999 nM; EC50 [2, 6]: 0.001 to 0.999 nM; EC50 [3, 7]: 1 to 4.99 nM |
